Reference: patent US20250136544A1, “8-((4-HYDROXY-3-METHYLPHENYL)DIAZENYL)NAPHTHALENE-1,3-DISULFONIC ACID AS AN ANTIMICROBIAL COMPOUND” (KING FAISAL UNIVERSITY, priority 2023, published 2025)

Assay: DPPH radical scavenging antioxidant test
Assay type: biochemical
Conditions: 517 nm; for Inhibition (radical scavenging inhibition): 0.2 mL DPPH (0.75 mM), compound 3 μM in ethanol, 30 minutes in the dark
Experimental: The antioxidant properties of the 8-((4-hydroxyphenyl)diazenyl)naphthalene-1,3-disulfonic acid compound were studied by adding 0.2 mL DPPH (0.75 mM)) to 8-((4-hydroxyphenyl)diazenyl)naphthalene-1,3-disulfonic acid (III) (3 μM) in ethanol. After 30 minutes of incubation in the dark, the absorbance was read against a blank at 517 nm. Ascorbic acid (vitamin C) was used as standard antioxidants (positive control). A blank sample was prepared by 0.2 ml of DPPH in 3 mL ethanol. A negative control sample was run using ethanol instead of the sample. The radical scavenging inhibition was calculated using the following equation: […]
The antioxidant activity for the synthesized compound is listed in Table 1, using Vitamin C as a reference.

| SMILES | Inhibition (radical scavenging inhibition) [%] | antioxidant potential in DPPH test compared to vitamin C (in words) (DPPH in vitro test, vitamin C as positive control) |
| --- | --- | --- |
| O=S(=O)(O)c1cc(S(=O)(=O)O)c2c(/N=N/c3ccc(O)cc3)cccc2c1 [Product III, 8-((4-hydroxyphenyl)diazenyl)naphthalene-1,3-disulfonic acid] | 52 | high potential as an antioxidant compared to vitamin C |
| O=C1O[C@H]([C@@H](O)CO)C(O)=C1O [vit c, Ascorbic acid, reference compound] | 74 |  |
